pKi: −log10 of the molar value.

T1 sequence (P31424 21-1203): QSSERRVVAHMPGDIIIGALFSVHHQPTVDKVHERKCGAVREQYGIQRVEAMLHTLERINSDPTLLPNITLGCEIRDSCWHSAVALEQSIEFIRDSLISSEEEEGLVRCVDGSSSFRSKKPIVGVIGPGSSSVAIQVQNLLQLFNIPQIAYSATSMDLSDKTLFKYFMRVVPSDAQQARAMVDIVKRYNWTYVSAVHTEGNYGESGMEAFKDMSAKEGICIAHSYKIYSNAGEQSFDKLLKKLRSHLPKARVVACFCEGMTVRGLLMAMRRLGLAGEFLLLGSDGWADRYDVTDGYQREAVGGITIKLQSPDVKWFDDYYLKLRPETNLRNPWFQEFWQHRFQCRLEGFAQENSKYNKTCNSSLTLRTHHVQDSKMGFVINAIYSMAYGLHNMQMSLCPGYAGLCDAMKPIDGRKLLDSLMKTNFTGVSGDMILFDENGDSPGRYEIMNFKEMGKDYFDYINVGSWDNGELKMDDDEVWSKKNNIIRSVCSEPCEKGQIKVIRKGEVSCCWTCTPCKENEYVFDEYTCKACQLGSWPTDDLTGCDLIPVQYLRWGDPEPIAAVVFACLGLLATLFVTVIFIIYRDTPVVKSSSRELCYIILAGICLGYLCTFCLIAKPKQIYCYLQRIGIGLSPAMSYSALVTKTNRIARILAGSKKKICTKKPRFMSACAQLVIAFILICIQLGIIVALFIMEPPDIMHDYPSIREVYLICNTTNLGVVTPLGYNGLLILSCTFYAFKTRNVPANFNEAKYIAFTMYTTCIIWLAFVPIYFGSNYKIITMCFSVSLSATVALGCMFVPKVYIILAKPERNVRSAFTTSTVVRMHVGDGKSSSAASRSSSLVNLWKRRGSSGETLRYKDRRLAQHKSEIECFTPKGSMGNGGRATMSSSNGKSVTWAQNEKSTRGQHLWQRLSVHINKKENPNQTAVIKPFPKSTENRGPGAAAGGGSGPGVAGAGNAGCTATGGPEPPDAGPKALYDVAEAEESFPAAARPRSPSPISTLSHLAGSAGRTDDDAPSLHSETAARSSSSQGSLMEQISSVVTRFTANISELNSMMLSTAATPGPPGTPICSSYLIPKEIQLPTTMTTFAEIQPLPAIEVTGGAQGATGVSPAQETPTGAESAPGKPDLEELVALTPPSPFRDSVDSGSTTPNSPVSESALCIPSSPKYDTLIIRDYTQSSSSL

The test concerns the target T1, rat mGluR5 receptors (Rattus norvegicus, UniProt P31424).
T1 construct: rat cerebro-cortical membrane preparation was used; from tissue; host or cells: rat cerebral cortex membranes
In words: mGluR5 receptor binding test, rat cerebro-cortical membrane preparation, [3H]-M-MPEP. The conditions noted are these: affinity for rat mGluR5 receptors; [3H]-M-MPEP (2 nM) radioligand. As to the method: The mGluR5 receptor binding was determined according to the modified method of Gasparini et. al. (Bioorg. Med. Chem. Lett., 2000, 12, 407). Based on the high homology between the human and rat mGluR5 receptors, rat cerebro-cortical membrane preparation was used to determine the binding characteristics of the reference compounds and novel compounds to the rat mGluR5. The A18 cell line expressing hmGluR5a (purchased from Euroscreen) was used to determine binding characteristics of the chemical compounds to the human mGluR5a receptor. [^3H]-M-MPEP (2 nM) was used as radioligand. The nonspecific binding was determined in the presence of 10 μM M-MPEP.
Broadly, the pKi is the negative decadic logarithm of the Ki, by convention in mol/L. Higher therefore signals a low Ki. As for `Cc1ccc(S(=O)(=O)c2cnc3ccccc3c2N2CCOCC2)cc1C` [Compound 1, 3-(3,4-Dimethyl-benzenesulfonyl)-4-(morpholin-4-yl)-quinoline], the pKi is more than 6.70.
The value for `Cc1ccc(S(=O)(=O)c2cnc3ccccc3c2N2CCC(C)CC2)cc1` [Compound 2, 3-(4-Methyl-benzenesulfonyl)-4-(4-methyl-piperidin-1-yl)-quinoline] was more than 6.70; that for `Cc1ccc(S(=O)(=O)c2cnc3ccccc3c2N2CCC(C)CC2)cc1C` [Compound 3, 3-(3,4-Dimethyl-benzenesulfonyl)-4-(4-methyl-piperidin-1-yl)-quinoline] was more than 6.70; that for `Cc1ccc(S(=O)(=O)c2cnc3ccccc3c2N2CCCC(C)C2)cc1` (stereo not shown) [Compound 4, 3-(4-Methyl-benzenesulfonyl)-4-(3-methyl-piperidin-1-yl)-quinoline] was more than 6.70.
The value for `O=S(=O)(c1ccccc1)c1cnc2ccccc2c1N1CCCCC1` [Compound 5] was 6.30 to 6.70.
The same measure for `Cc1ccc(S(=O)(=O)c2cnc3ccccc3c2N2CCCCC2)cc1` [Compound 6]: more than 6.70; for `COc1cc2ncc(S(=O)(=O)c3ccccc3)c(N3CCOCC3)c2cc1OC` [Compound 7]: less than 6.30.
For `O=S(=O)(c1ccc(N2CCCCC2)cc1)c1cnc2ccc(Cl)cc2c1N1CCCCC1` [Compound 8], the negative logarithm of the Ki (pKi) is less than 6.30.
For the molecule `CCN(CC)c1c(S(=O)(=O)c2ccc(Cl)cc2)cnc2ccc(C)cc12` [Compound 9], the pKi is more than 6.70.
The value for `CCN1CCN(c2c(S(=O)(=O)c3ccc(F)cc3)cnc3ccc(Cl)cc23)CC1` [Compound 10] was less than 6.30.
`COc1ccc(S(=O)(=O)c2cnc3ccc(Cl)cc3c2NCc2ccccc2)cc1` [Compound 11] gave a pKi of less than 6.30.
The same measure for `CCc1ccc2ncc(S(=O)(=O)c3ccc(OC)cc3)c(N(CC)CC)c2c1` [Compound 12]: less than 6.30; for `O=S(=O)(c1ccccc1)c1cnc2ccc(F)cc2c1N1CCN(Cc2ccccc2)CC1` [Compound 13]: less than 6.30; for `Cc1ccc(S(=O)(=O)c2cnc3ccc(F)cc3c2N2CCC(C)CC2)cc1` [Compound 14]: 6.30 to 6.70.
The value for `COc1ccc2ncc(S(=O)(=O)c3ccc(Cl)cc3)c(N3CCC(C)CC3)c2c1` [Compound 15] was less than 6.30.
As for `CCOc1ccc2ncc(S(=O)(=O)c3ccc(Cl)cc3)c(NCc3ccc(F)cc3)c2c1` [Compound 16], the pKi was more than 6.70.
The same measure for `CCN(CC)c1c(S(=O)(=O)c2ccc(Cl)cc2)cnc2cc3c(cc12)OCCO3` [Compound 18]: less than 6.30; for `CCN1CCN(c2c(S(=O)(=O)c3ccc(C)c(C)c3)cnc3cc4c(cc23)OCO4)CC1` [Compound 19]: less than 6.30; for `O=S(=O)(c1ccccc1)c1cnc2ccccc2c1Nc1ccccc1` [Compound 20]: less than 6.30.
The same measure for `Cc1ccc(Nc2c(S(=O)(=O)c3ccc(C)cc3)cnc3ccccc23)cc1` [Compound 21]: less than 6.30.
The molecule `Cc1ccc(Nc2c(S(=O)(=O)c3ccc(Cl)cc3)cnc3ccccc23)cc1C` [Compound 22] gave a pKi of less than 6.30.
The value for `COc1cccc(Nc2c(S(=O)(=O)c3ccccc3)cnc3ccc(OC)cc23)c1` [Compound 23] was less than 6.30; that for `COc1ccc(Nc2c(S(=O)(=O)c3ccc(C)cc3)cnc3ccccc23)cc1OC` [Compound 24] was less than 6.30; that for `Cc1ccc(S(=O)(=O)c2cnc3ccccc3c2Nc2ccc(F)cc2)cc1` [Compound 25] was less than 6.30.
The same measure for `Cc1ccc(S(=O)(=O)c2cnc3ccc(C)cc3c2Nc2ccc(Cl)cc2)cc1` [Compound 26]: less than 6.30; for `Cc1ccc(S(=O)(=O)c2cnc3ccccc3c2Nc2ccc3c(c2)OCCO3)cc1` [Compound 27]: less than 6.30; for `Cc1ccc(S(=O)(=O)c2cnc3ccc(C)cc3c2NCc2ccccc2)cc1` [Compound 28]: less than 6.30.
The value for `Cc1ccc(S(=O)(=O)c2cnc3ccc(C)cc3c2NCc2ccc(F)cc2)cc1` [Compound 29] was less than 6.30; that for `CCc1ccc2ncc(S(=O)(=O)c3ccc(Cl)cc3)c(NCc3ccc(C)cc3)c2c1` [Compound 30] was less than 6.30; that for `COc1ccc(CNc2c(S(=O)(=O)c3ccc(Cl)cc3)cnc3ccccc23)cc1` [Compound 31] was less than 6.30.
For `Cc1ccc(S(=O)(=O)c2cnc3ccccc3c2N2CCCCCC2)cc1` [Compound 32], the pKi is more than 6.70.
In turn, `Cc1ccc(S(=O)(=O)c2cnc3ccc(F)cc3c2N2CCCCCC2)cc1` [Compound 33] had a pKi of less than 6.30.
The value for `O=S(=O)(c1ccc(Cl)cc1)c1cnc2ccccc2c1N1CCCCCC1` [Compound 34] was 6.30 to 6.70; that for `CCc1ccc2ncc(S(=O)(=O)c3ccccc3)c(N3CCCC3)c2c1` [Compound 35] was less than 6.30.
The value for `CCOc1ccc2ncc(S(=O)(=O)c3ccccc3)c(N3CCCC3)c2c1` [Compound 36] was less than 6.30; that for `O=S(=O)(c1ccccc1)c1cnc2ccc(Cl)cc2c1N1CCCC1` [Compound 37] was less than 6.30.
The same measure for `Cc1ccc(S(=O)(=O)c2cnc3ccc(Cl)cc3c2N2CCOCC2)cc1C` [Compound 38]: less than 6.30; for `Cc1ccc2ncc(S(=O)(=O)c3ccc(Cl)cc3)c(N3CCOCC3)c2c1` [Compound 39]: less than 6.30.
Regarding `O=S(=O)(c1ccc(Cl)cc1)c1cnc2ccccc2c1N1CCOCC1` [Compound 40], the pKi was less than 6.30.
Consider `Cc1ccc(S(=O)(=O)c2cnc3ccc(C)cc3c2N2CCCCC2)cc1` [Compound 41], for which the pKi was less than 6.30.
The value for `Cc1ccc(S(=O)(=O)c2cnc3cc4c(cc3c2N2CCCCC2)OCCO4)cc1` [Compound 42] was less than 6.30.
The same measure for `O=S(=O)(c1ccc(Cl)cc1)c1cnc2ccccc2c1N1CCCCC1` [Compound 43]: less than 6.30; for `COc1ccc(S(=O)(=O)c2cnc3ccc(OC)cc3c2N2CCCCC2)cc1` [Compound 44]: less than 6.30.
The value for `CCc1ccc2ncc(S(=O)(=O)c3ccccc3)c(N3CCCCC3)c2c1` [Compound 45] was less than 6.30; that for `Cc1ccc(S(=O)(=O)c2cnc3ccc(C)cc3c2N2CCC(C)CC2)cc1` [Compound 46] was more than 6.70.
The molecule `CC1CCN(c2c(S(=O)(=O)c3ccccc3)cnc3ccccc23)CC1` [Compound 47] gave a pKi of more than 6.70.
`CC1CCN(c2c(S(=O)(=O)c3ccccc3)cnc3cc4c(cc23)OCCO4)CC1` [Compound 48] gave a pKi of more than 6.70.
The same measure for `Cc1ccc2ncc(S(=O)(=O)c3ccccc3)c(N3CCC(C)CC3)c2c1` [Compound 49]: less than 6.30; for `COc1ccc2ncc(S(=O)(=O)c3ccc(C)cc3)c(N3CCC(C)CC3)c2c1` [Compound 50]: less than 6.30; for `CCc1ccc2ncc(S(=O)(=O)c3ccc(OC)cc3)c(N3CCC(C)CC3)c2c1` [Compound 51]: more than 6.70.
The value for `CCOC(=O)C1CCN(c2c(S(=O)(=O)c3ccc(C)cc3)cnc3ccc(CC)cc23)CC1` [Compound 52] was less than 6.30; that for `CCOC(=O)C1CCN(c2c(S(=O)(=O)c3ccc(Cl)cc3)cnc3ccc(CC)cc23)CC1` [Compound 53] was more than 6.70; that for `CCOC(=O)C1CCN(c2c(S(=O)(=O)c3ccc(C)cc3)cnc3ccccc23)CC1` [Compound 54] was less than 6.30.
The value for `CCOC(=O)C1CCN(c2c(S(=O)(=O)c3ccc(C)cc3)cnc3ccc(F)cc23)CC1` [Compound 55] was less than 6.30; that for `CCOC(=O)C1CCCN(c2c(S(=O)(=O)c3ccc(C)cc3)cnc3ccccc23)C1` (stereo not shown) [Compound 56] was less than 6.30; that for `CCOC(=O)C1CCCN(c2c(S(=O)(=O)c3ccccc3)cnc3ccc(CC)cc23)C1` (stereo not shown) [Compound 57] was less than 6.30.
On to `CCOC(=O)C1CCCN(c2c(S(=O)(=O)c3ccc(C)cc3)cnc3ccc(OC)cc23)C1` (stereo not shown) [Compound 58], for which the pKi is less than 6.30.
The value for `Cc1ccc(S(=O)(=O)c2cnc3ccc(C)cc3c2N2CCC(C(N)=O)CC2)cc1` [Compound 59] was less than 6.30.
In turn, `O=S(=O)(c1ccccc1)c1cnc2ccccc2c1N1CCC2(CC1)OCCO2` [Compound 60] had a pKi of less than 6.30.
The same measure for `CN1CCN(c2c(S(=O)(=O)c3ccc(Cl)cc3)cnc3ccccc23)CC1` [Compound 61]: less than 6.30; for `CCN1CCN(c2c(S(=O)(=O)c3ccc(Cl)cc3)cnc3ccc(C)cc23)CC1` [Compound 62]: less than 6.30.
The same measure for `CCc1ccc2ncc(S(=O)(=O)c3ccccc3)c(N3CCN(CC)CC3)c2c1` [Compound 63]: less than 6.30; for `O=S(=O)(c1ccccc1)c1cnc2ccccc2c1N1CCN(Cc2ccccc2)CC1` [Compound 64]: less than 6.30; for `Cc1ccc(S(=O)(=O)c2cnc3ccc(C)cc3c2N2CCN(Cc3ccccc3)CC2)cc1` [Compound 65]: less than 6.30.
The same measure for `CCc1ccc2ncc(S(=O)(=O)c3ccccc3)c(N3CCN(Cc4ccccc4)CC3)c2c1` [Compound 66]: less than 6.30.
For the molecule `Cc1ccc(S(=O)(=O)c2cnc3ccc(F)cc3c2N2CCN(c3ccccc3)CC2)cc1` [Compound 67], the pKi is less than 6.30.
The same measure for `Cc1ccc(N2CCN(c3c(S(=O)(=O)c4ccccc4)cnc4ccc(F)cc34)CC2)c(C)c1` [Compound 68]: less than 6.30.
`COc1ccc2ncc(S(=O)(=O)c3ccccc3)c(N3CCN(c4cccc(C)c4C)CC3)c2c1` [Compound 69] showed a pKi of less than 6.30.
The value for `Cc1ccc(S(=O)(=O)c2cnc3ccccc3c2N2CCN(c3cc(C)ccc3C)CC2)cc1` [Compound 70] was less than 6.30.
Turning to `O=S(=O)(c1ccccc1)c1cnc2ccccc2c1N1CCN(c2cccc(Cl)c2)CC1` [Compound 71], the pKi is less than 6.30.
